These are literature values, as cited in patent publication US9884844B2 (priority 2012, dated 2018).

For this series the following is noted: rather increase it at high dose.

Take `O=C1NCN(c2ccccc2)C12CCN([C@@H]1CC[C@H]3CCCc4cccc1c43)CC2` [Ro64-6198]: the “effect on alcohol drinking” value is “failed to decrease alcohol drinking”.
